Our source for the EC50 values is BindingDB's records for patent US9556111 (UNIVERSITETET I OSLO, 2017).

For this assay, the target named is A-kinase anchor protein 7 isoform gamma (Human, UniProt Q9P0M2). The assay can be described thus: Binding Assay. As for the experimental part: Stable and optimal assay conditions were determined by cross-titrating GST-AKAP18δ and biotinylated PLB using 10 μg/ml glutathione acceptor beads and 10 μg/ml streptavidin donor beads in an AlphaScreen assay. The excitation wavelength was 680 nm, with the emission wavelength being 520-560 nm. Signal intensity in each well was registered and the optimal concentration to use was chosen to be the concentration prior to the peak of the signal.
Sequence of A-kinase anchor protein 7 isoform gamma (Q9P0M2 whole entry, canonical isoform): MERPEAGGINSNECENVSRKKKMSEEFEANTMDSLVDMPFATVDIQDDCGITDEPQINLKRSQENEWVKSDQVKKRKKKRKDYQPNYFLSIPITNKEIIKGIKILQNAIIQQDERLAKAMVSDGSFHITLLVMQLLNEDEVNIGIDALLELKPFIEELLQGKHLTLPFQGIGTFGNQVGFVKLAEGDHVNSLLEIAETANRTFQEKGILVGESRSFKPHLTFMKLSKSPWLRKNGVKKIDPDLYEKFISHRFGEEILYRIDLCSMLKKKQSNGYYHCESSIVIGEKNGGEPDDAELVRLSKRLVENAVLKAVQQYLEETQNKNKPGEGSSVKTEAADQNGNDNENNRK

Take `Cc1ccc(NC(=O)Nc2ccc(CN(Cc3ccc(NC(=O)Nc4ccc(C)cc4)cc3)Cc3ccc(NC(=O)Nc4ccc(C)cc4)cc3)cc2)cc1` [US9556111, Table 1.20]: the EC50 worked out at 5.2 µM.

By EC50 is commonly meant the midpoint of the concentration-response curve. High values mean weaker potency, low ones greater potency.
